Consider two molecules from patent publication US10577315B2, “Compositions and methods for treatment of prostate carcinoma” (Pellficure Pharmaceuticals, Inc., priority 2014, dated 2020).

Assay [1] deals with H2B-GFP-PTEN-P2 tumor cells. Put plainly: In vivo effect combined with castration in the pseudo-orthotopic chamber model for prostate cancer. Set-up: species or system mouse. Conditions: orally once a day in sesame seed oil, equimolar to 1 mg/kg plumbagin, castrated male nu/nu mice. An excerpt: A syngeneic pseudo-orthotopic in vivo model was developed to study the early steps of prostate cancer. Chambers are surgically placed into the dorsal skinfold of male mice. Briefly, male mice (25-30 g body weight) are anesthetized and placed on a heating pad. Two symmetrical titanium frames are implanted into the dorsal skinfold. A circular layer is excised from one of the skin layers. The underlying muscle and subcutaneous tissues are covered with a glass coverslip incorporated in one of the frames. After a recovery period of 2-3 days, stoma tissue and tumor cells are carefully placed in the chamber.
Male Nude mice (25-35 g body weight) are anesthetized (7.3 mg ketamine hydrochloride and 2.3 mg xylazine/100 g body weight, i.p.) and placed on a heating pad. Two symmetrical titanium frames are implanted into a dorsal skinfold, so as to sandwich the extended double layer of skin. […]
Liquid overlay plates are generated using 1% Agarose melted in DMEM that is added to round-bottom 96-well plates (50 ul/well). […] Viability is determined using Trypan blue. […]. The size of the implanted spheroid can be determined precisely to minimize variations between animals. […]
Fluorescence microscopy is performed using a Mikron Instrument Microscope equipped with epi-illuminator and video-triggered stroboscopic illumination from a xenon arc (MV-7600, EG&G). […]

The test system of assay [2] is PTEN-P2/GFP prostate cancer cells. Put plainly: Effect of 1,4-naphthoquinone analogs on PTEN-P2/GFP cell proliferation (WST-1 cell viability, 24 h). Type of assay: cell-based. Conditions: Mus musculus, WST-1, medium with 10% FBS and DHT, read-out: PTEN-P2/GFP cell proliferation, percent of control. Summed up:
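PTEN-P2/GFP cells, 8000/well, in medium with 10% FBS and 10^−8M DHT, dosed next day with increasing analog concentrations (constant DMSO) for 24 h at 37 °C, 5% CO2. Viability read by WST-1 after 3 h at 37 °C, OD at 460 nm.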

`O=C1C=C(Nc2ccccc2)C(=O)c2ccccc21` [Analog F35, 2-(phenylamino)naphthalene-1,4-dione]: the “in vivo efficiency of combination treatment with castration compared with plumbagin and castration (FIG. 9)” value in assay [1] is “more efficient in vivo than treatment with plumbagin and castration”.
Consider `COc1cccc2c1C(=O)C=CC2=O` [Analog F51, 5-methoxy-1,4-naphthoquinone], for which the “in vivo efficiency of combination treatment with castration compared with plumbagin and castration (FIG. 9)” value in assay [1] is “more efficient in vivo than treatment with plumbagin and castration”. In addition, in assay [2] (1 μM), the activity at 1 µM was 103%. In assay [2] (2 μM), the activity at 2 µM amounted to 104%. In assay [2] (3 μM), the activity at 3 µM was 105%. The activity at 4 µM in assay [2] (4 μM) was 105%. Also, in assay [2] (5 μM), the activity at 5 µM was determined as 103%. In assay [2] (6 μM), the activity at 6 µM worked out at 94%. In addition, the activity at 7 µM in assay [2] (7 μM) was determined as 85.7%. Besides, the activity at 10 µM in assay [2] (10 μM) was determined as 43.4%. Also, in assay [2] (25 μM), the activity at 25 µM was found to be 9.58%. Also, the activity at 50 µM in assay [2] (50 μM) came out at 10.3%.
